In this series the test system is HeLa cells. In kind it is cell-based. On the procedure:
We first evaluated cell toxicity of Pep-MD. Specifically, we quantified HeLa cell viability using CellTiter-Glo® Luminescent Cell Viability Assay kit in the presence of a series of concentration of Pep-MD, 0.1, 0.5 and 2 µM, in serum-free cell culture media. The kit can visualize the number of viable cells as chemiluminescence intensity based on quantitation of the ATP present, an indicator of metabolically active cells. As a positive control, we also evaluated TAT (GRKKRRQRRR in amino acid sequence).
The HeLa cell line was purchased from RIKEN cell bank (Tsukuba, Japan). HeLa cells were cultured in Dulbecco’s Eagle’s medium (DMEM, FUJIFILM Wako Pure Chemical, Japan) supplemented with inactivated 10% fetal bovine serum (FBS, Biosera, France) and 1% penicillin–streptomycin solution (FUJIFILM Wako Pure Chemical).
HeLa cells were seeded at a density of 8000 cells per well in 96 well plate (AGC Techno Glass, Shizuoka, Japan). […] Cell viability of each well was quantified with CellTiter-Glo® Luminescent Cell Viability Assay kit (Promega, Madison, WI, USA) and EnSpire™ microplate reader (PerkinElmer, Waltham, MA, USA) according to manufacturer’s instructions. The cell viability was calculated as the chemiluminescence intensity ratio of samples to that of […] without peptide.

Here are results for 2 sequences from PMC8137933, “Using molecular dynamics simulations to prioritize and understand AI-generated cell penetrating peptides” (Scientific Reports, 2021).

As to GRKKRRQRRR [TAT], the “Cell toxicity (HeLa cell viability) at 2.0 µM” value was “significant cell toxicity”. As for YRGWHCRGITKNGIIFDIKW [Pep-MD], the entry is “little toxicity”.
